Structures are written as SMILES.

What all share (format): functional
Holding throughout (details): read-out: GI

Test [1] relates to NCI-H460. Put plainly: Growth inhibition of human NCI-H460 cells at 10 uM incubated for 48 hrs by sulforhodamine B assay relative to control. (The SRB assay estimates cell density from bound dye.)
In test [2] the test system is IGROV-1. Description: Growth inhibition of human IGROV-1 cells at 10 uM incubated for 48 hrs by sulforhodamine B assay relative to control.
Test [3] concerns NCI-H322M. Description: Growth inhibition of human NCI-H322M cells at 10 uM incubated for 48 hrs by sulforhodamine B assay relative to control.
For test [4], the system named is COLO 205. Description: Growth inhibition of human COLO 205 cells at 10 uM incubated for 48 hrs by sulforhodamine B assay relative to control.
Test [5] concerns 786-0. Description: Growth inhibition of human 786-0 cells at 10 uM incubated for 48 hrs by sulforhodamine B assay relative to control.
The subject of test [6] is SW-620. Description: Growth inhibition of human SW-620 cells at 10 uM incubated for 48 hrs by sulforhodamine B assay relative to control.
In test [7] the test system is Hs-578T. Put plainly: Growth inhibition of human Hs-578T cells at 10 uM incubated for 48 hrs by sulforhodamine B assay relative to control.
Test [8] relates to CAKI-1. Description: Growth inhibition of human CAKI-1 cells at 10 uM incubated for 48 hrs by sulforhodamine B assay relative to control.
Test [9] deals with NCI/ADR-RES. Description: Growth inhibition of human NCI/ADR-RES cells at 10 uM incubated for 48 hrs by sulforhodamine B assay relative to control.
The subject of test [10] is OVCAR-5. Put plainly: Growth inhibition of human OVCAR-5 cells at 10 uM incubated for 48 hrs by sulforhodamine B assay relative to control.
The subject of test [11] is OVCAR-3. Put plainly: Growth inhibition of human OVCAR-3 cells at 10 uM incubated for 48 hrs by sulforhodamine B assay relative to control.
Test [12] concerns NCI-H226. Description: Growth inhibition of human NCI-H226 cells at 10 uM incubated for 48 hrs by sulforhodamine B assay relative to control.
The subject of test [13] is Malme-3M. Description: Growth inhibition of human Malme-3M cells at 10 uM incubated for 48 hrs by sulforhodamine B assay relative to control.
Test [14] concerns SK-MEL-2. Put plainly: Growth inhibition of human SK-MEL-2 cells at 10 uM incubated for 48 hrs by sulforhodamine B assay relative to control.
Test [15] concerns A498. Description: Growth inhibition of human A498 cells at 10 uM incubated for 48 hrs by sulforhodamine B assay relative to control.
The subject of test [16] is EKVX. Put plainly: Growth inhibition of human EKVX cells at 10 uM incubated for 48 hrs by sulforhodamine B assay relative to control.

Turning to `O=C(CN1CCCCC1)Nc1ccc(-c2nc3ccccc3s2)cc1`, the inhibition of growth at 10 µM in [1] was -1.42%; in test [2], -10.3%; in test [3], -11.9%; in test [4], -5.35%; in [5], 13.9%; in test [6], -9.04%. Moreover, the inhibition of growth at 10 µM in test [7] was 12.6%; in [8] it was 9.3%; in test [9], 6.26%; in test [10], -4.63%; in test [11], -0.25%; in [12], 11.3%. Further, the inhibition of growth at 10 µM is -9.17% in test [13] and -7.06% in [14].

Regarding `O=C(CNC1CCCCC1)Nc1ccc(-c2nc3ccccc3s2)cc1`, the inhibition of growth at 10 µM in test [1] was 8.69%; in test [2] it was -0.35%; in [3], 8.27%; in [4] it was 4.58%; in test [5], 29.4%; in test [6], -0.38%. Further, the inhibition of growth at 10 µM in [7] came to 15.8%; in [8], 14%; in [9], 11%; in test [10], 5.32%; in test [11], 5.98%; in test [12] it was 19.7%. Moreover, the values for the inhibition of growth at 10 µM in test [13] and in [14] were -5.44% and -4.63%, respectively.

With `O=C(CNCc1ccccc1)Nc1ccc(-c2nc3ccccc3s2)cc1`, the inhibition of growth at 10 µM is 3.57% in test [1]; -2.9% in test [2]; 17.8% in [3]; -11.5% in [4]; 8.55% in test [5]; -1.34% in test [6]. The inhibition of growth at 10 µM was -4.26% in test [7]; 9.29% in test [8]; -0.82% in test [9]; 12.3% in test [10]; 8.88% in [11]; 15.8% in [12]. Also, the inhibition of growth at 10 µM in test [13] is -6.22%; in [14], -7.25%.

Regarding `O=C(CN1CCOCC1)Nc1ccc(-c2nc3ccccc3s2)cc1`, the inhibition of growth at 10 µM is 0.34% in [1]; -5.69% in test [2]; -0.11% in test [3]; -15.3% in [4]; -1.3% in [5]; -7.93% in test [6]. Besides, the inhibition of growth at 10 µM was -9.77% in test [7]; 0.31% in [8]; -4.92% in test [9]; 6.58% in [10]; 3.74% in test [11]; 4.99% in [12]. Further, the inhibition of growth at 10 µM in test [13] is -17%; in test [14], -14.6%.

Turning to `O=C(CNc1ccccc1)Nc1ccc(-c2nc3ccccc3s2)cc1`, the inhibition of growth at 10 µM is 0.08% in [1]; 16.1% in [2]; 12.9% in [3]; -11.2% in test [4]; 15.4% in [5]; -6.41% in test [6]. The inhibition of growth at 10 µM is -8.46% in test [7]; 1.16% in [8]; 1.75% in test [9]; -10.9% in test [10]; 5.15% in test [11]; 5.83% in [12]. Also, the inhibition of growth at 10 µM in test [13] was 4.9%; in test [14], -4.93%.

On to `COc1ccc(NCC(=O)Nc2ccc(-c3nc4ccccc4s3)cc2)cc1`, for which the inhibition of growth at 10 µM in test [1] was 0.74%; in test [2] it was 7.74%; in test [3], 3%; in [4], -6.9%; in test [5], 14.8%; in test [6], -4.02%. In addition, the inhibition of growth at 10 µM in test [7] is 2.83%; in test [8] it was -2.81%; in test [9], -1.88%; in test [10] it was 1.84%; in test [11], 3.44%; in test [12], 5.16%. In addition, the inhibition of growth at 10 µM in test [13] was -26%; in [14], -15.7%.

For `NS(=O)(=O)c1ccc(NCC(=O)Nc2ccc(-c3nc4ccccc4s3)cc2)cc1`, the inhibition of growth at 10 µM in [1] stood at 7.45%; in test [2], 41%; in test [3], 12%; in test [4] it was 1.47%; in [5], 87.9%; in [6], 36.3%. Besides, the inhibition of growth at 10 µM in test [7] is 1.67%; in [8], 7.14%; in test [9] it was 5.97%; in test [10], -5.64%; in test [11] it was 65.7%; in test [12] it was 16.3%. The results for the inhibition of growth at 10 µM in test [13] and in test [14] were 46.4% and 12.2%, respectively.

For `O=C(Cn1ccnc1)Nc1ccc(-c2nc3ccccc3s2)cc1`, the inhibition of growth at 10 µM in test [15] turned out to be 42.5%; in [16], 38.6%; in test [1] it was 20.2%; in test [2] it was 31.1%; in [3], 1.71%; in [4], 19.2%. In addition, the inhibition of growth at 10 µM in [5] is 22%; in test [6], 0.17%; in [7] it was 13.1%; in [8], 33.8%; in [9], 11.8%; in [10], -3.81%. Also, the inhibition of growth at 10 µM in test [11] was 37.8%; in test [12] it was 33.4%.

For `Cc1ccc(NCC(=O)Nc2ccc(-c3nc4ccccc4s3)cc2)cc1`, the inhibition of growth at 10 µM is -2.34% in [1]; 7.63% in test [2]; 4.73% in test [3]; -3.48% in test [4]; 10.2% in test [5]; -7.34% in [6]. The inhibition of growth at 10 µM in [7] is -3.42%; in test [8], 0.82%; in test [9], 2.16%; in test [10], -6.57%; in [11], 0.68%; in test [12], 5.78%. For the same molecule, the inhibition of growth at 10 µM in test [13] is -21.5%; in test [14], -6.66%.
